Data on 3 compounds can be found in ChEMBL document CHEMBL3044628, “Okaramine C, a New Insecticidal Indole Alkaloid from Penicillium simplicissimum” (1991).

Each structure is given as a SMILES string.

The test system of this assay is Bombyx mori. Kind of assay: Insecticidal activity against po dosed larvae of Bombyx mori assessed per gram of diet. In kind it is functional.
Regarding `C=CC(C)(C)N1c2ccccc2[C@]2(O)C[C@@H]3C(=O)N4/C=C\C(C)(C)c5[nH]c6ccccc6c5/C=C\4C(=O)N3[C@H]12` [OKARAMINE A], the LD50 amounted to 8 mg/kg. In turn, `CO[C@@H]1[C@]2(O)C(=O)N3/C=C\C(C)(C)c4[nH]c5ccccc5c4/C=C\3C(=O)N2[C@]23[C@H](C)C(C)(C)N2c2ccccc2[C@]13O` [OKARAMINE B] registered an LD50 of 0.2 mg/kg. For the compound `C=CC(C)(C)c1[nH]c2ccccc2c1CC1NC(=O)[C@H]2C[C@@]3(O)c4ccccc4N(C(C)(C)C=C)[C@H]3N2C1=O` (stereo partly drawn) [OKARAMINE C], the LD50 is 7 mg/kg.
